Reference: ChEMBL document CHEMBL3832069, “DailyMed|setid=b463cd5f-299a-45f8-a1b3-c9e7fe271955 | INDOMETHACIN- indomethacin capsule|PD-Rx Pharmaceuticals, Inc”

Key:
Assay type in all cases: ADME, organism-based
[1] = (§1) Pharmacokinetic parameters for Indomethacin evaluated after single oral administration of 25 or 50 mg Indomethacin capsules.; design: dose 25 mg, dose 50 mg, route oral; conditions: human, in vivo, dosed compound id 57, dosed compound name INDOMETHACIN, regimen Single dose, tissue Plasma
[2] = system: Homo sapiens; experiment: as §1; design: dose 25 mg, dose 50 mg, route oral; conditions: in vivo, po, dosed compound id 57, dosed compound name INDOMETHACIN, regimen Single dose, tissue Plasma
[3] = Pharmacokinetic parameters for Indomethacin evaluated after oral administration of Indomethacin capsules.; conditions: human, in vivo, dosed compound id 57, dosed compound name INDOMETHACIN, tissue Plasma

COc1ccc2c(c1)c(CC(=O)O)c(C)n2C(=O)c1ccc(Cl)cc1 [INDOMETHACIN]
Cmax ([1]; po): 1000 ng/mL
Tmax ([1]; dose 25 mg, route oral): 2 h
Cmax [2]: 2000 ng/mL
bioavailability [3]: 100%
half-life [3]: 4.5 h
fraction unbound ([3]; read-out: Protein binding): 0.01
